Data reported in US20100273806A1, “TETRAHYDROCYCLOPENTA[B]INDOL-3-YL CARBOXYLIC ACID DERIVATIVES USEFUL IN THE TREATMENT OF AUTOIMMUNE AND INFLAMMATORY DISORDERS” (ARENA PHARMACEUTICALS, INC., priority 2007, published 2010).
“Also recorded” adds a separate entry of the source.

What was measured:
[1] = biological target: T1, S1P1 receptor (Homo sapiens, UniProt P21453); assay: HTRF assay for direct cAMP measurement (S1P1 receptor agonists); format: cell-based; conditions: recombinant CHO-K1 cells stably transfected with S1P1 receptor; decrease of cAMP concentration
T1 construct: expressed in transfected cells; host or cells: CHO-K1 (ATCC CCL-61), stably transfected
Excerpt: Compounds were screened for agonists of S1P1 receptor (e.g., human S1P1 receptor) using HTRF® assay for direct cAMP measurement (Gabriel et al, ASSAY and Drug Development Technologies, 1:291-303, 2003) and recombinant CHO-K1 cells stably transfected with S1P1 receptor. CHO-K1 cells were obtained from ATCC® (Manassas, Va.; Catalog #CCL-61). An agonist of S1P1 receptor was detected in HTRF® assay for direct cAMP measurement as a compound which decreased cAMP concentration. HTRF® assay also was used to determine EC50 values for S1P1 receptor agonists.
Principle of the assay: HTRF® assay kit was purchased from Cisbio-US, Inc. (Bedford, Mass.; Catalog #62AM4PEC). The HTRF® assay supported by the kit is a competitive immunoassay between endogenous cAMP produced by the CHO-K1 cells and tracer cAMP labeled with the dye d2. The tracer binding is visualized by a monoclonal anti-cAMP antibody labeled with Cryptate. The specific signal (i.e., fluorescence resonance energy transfer, FRET) is inversely proportional to the concentration of unlabeled cAMP in the standard or sample.
The fluorescence ratio of the samples (test compound or compound buffer) was calculated and used to deduce respective cAMP concentrations by reference to the cAMP standard curve.
Setup of the assay: HTRF® assay was carried out using a two-step protocol essentially according to the kit manufacturer's instructions, in 20 μL total volume per well in 384-well plate format (ProxiPlates; PerkinElmer, Fremont, Calif.; catalog #6008280). To each of the experimental wells was transferred 1500 recombinant CHO-K1 cells in 5 μL phosphate buffered saline containing calcium chloride and magnesium chloride (“PBS+”; Invitrogen, Carlsbad, Calif.; catalog #14040) supplemented with IBMX (250 μM) and rolipram (20 μM) (phosphodiesterase inhibitors; Sigma-Aldrich, St. Louis, Mo.; catalog #I5879 and catalog #R6520, respectively), followed by test compound in 5 μL compound buffer (PBS+ supplemented with […] (water-soluble forskolin derivative; SignaGen Laboratories, Gaithersburg, Md.; catalog #PKI-NKH477-010)) or 5 μL compound buffer. The plate was then incubated at room temperature for 1 hour. To each well was then added 5 μL cAMP-d2 conjugate in lysis buffer and 5 μL Cryptate conjugate in lysis buffer according to the kit manufacturer's instructions. The plate was then further incubated at room temperature for 1 hour, after which the assay plate was read.
Assay readout: HTRF® readout was accomplished using a PHERAstar (BMG LABTECH Inc., Durham, N.C.) or EnVision™ (PerkinElmer, Fremont Calif.) microplate reader.

[2] = biological target: S1P3 receptor (Homo sapiens, UniProt Q99500); assay: Cellular/functional Ca2+ assay for agonist activity on S1P3 receptor; format: cell-based; design: a human neuroblastoma cell line which endogenously expresses S1P3 (predominantly); endogenous in cells; conditions: human neuroblastoma cell line endogenously expressing S1P3; FIG. 1
Excerpt: Of these, S1P3 and S1P2 receptors respond to agonist, such as S1P, with an intracellular calcium increase. […] Such an assay can be performed commercially, e.g. by Caliper LifeSciences (Hopkinton, Mass.).
Assay: The human neuroblastoma cells were washed and resuspended in physiological buffer. The cells were then loaded with dye that measures intracellular calcium. S1P was used as a reference agonist. Compound 52 was included in the assay as a test compound. After addition of S1P or Compound 52, fluorescence was measured at 485 nm excitation/525 nm emission every 2 s for at least 60 s. Calcium ionophore A23187 was then added as an internal positive control.

[3] = tested on: Male BALB/c mice; assay: Mouse peripheral lymphocyte lowering (PLL) assay; format: in vivo; conditions: 1 mg/kg i.v. in 100% PEG400, 5 h post dose, compared with vehicle; *P<0.05; FIG. 2
Description: Animals: Male BALB/c mice (6 to 7 weeks of age at start of study) (Charles River Laboratories, Wilmington, Mass.) were housed four per cage and maintained in a humidity- (40-60%) and temperature- (68-72° F.) controlled facility on a 12 h:12 h light/dark cycle (lights on at 6:30 am) with free access to food (Harlan Teklad, Orange, Calif., Rodent Diet 8604) and water. Mice were allowed one week of habituation to the animal facility before testing.
PLL Assay: Mice were administered via i.v. one of the following: saline, vehicle (100% PEG400) or 1 mg/kg Compound 52 in vehicle, in a total volume of 5 ml/kg. Peripheral blood samples were collected at 5 h post dose. The mice were anesthetized with isoflurane and bled retro-orbitally (300 μL) into 1.5 ml EDTA tubes. A complete cell count (CBC) (including lymphocyte count) was obtained using CELL-DYN® 3700 (Abbott Laboratories, Abbott Park, Ill.). Results are presented in FIG. 2, in which peripheral blood lymphocyte (PBL) count is shown for the 5 hour group.

T1 sequence (P21453 whole entry): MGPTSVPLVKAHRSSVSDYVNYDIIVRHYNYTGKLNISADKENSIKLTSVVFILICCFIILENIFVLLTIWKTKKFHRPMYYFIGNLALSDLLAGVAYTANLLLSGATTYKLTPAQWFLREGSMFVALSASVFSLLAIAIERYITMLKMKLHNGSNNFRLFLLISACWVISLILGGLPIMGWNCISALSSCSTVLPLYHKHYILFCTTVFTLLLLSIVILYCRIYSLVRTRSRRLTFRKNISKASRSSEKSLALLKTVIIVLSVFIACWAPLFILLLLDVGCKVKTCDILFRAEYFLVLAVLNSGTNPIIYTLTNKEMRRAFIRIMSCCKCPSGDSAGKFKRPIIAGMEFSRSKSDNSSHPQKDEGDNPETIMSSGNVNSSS
Chain of S1P3 receptor (Q99500 whole entry): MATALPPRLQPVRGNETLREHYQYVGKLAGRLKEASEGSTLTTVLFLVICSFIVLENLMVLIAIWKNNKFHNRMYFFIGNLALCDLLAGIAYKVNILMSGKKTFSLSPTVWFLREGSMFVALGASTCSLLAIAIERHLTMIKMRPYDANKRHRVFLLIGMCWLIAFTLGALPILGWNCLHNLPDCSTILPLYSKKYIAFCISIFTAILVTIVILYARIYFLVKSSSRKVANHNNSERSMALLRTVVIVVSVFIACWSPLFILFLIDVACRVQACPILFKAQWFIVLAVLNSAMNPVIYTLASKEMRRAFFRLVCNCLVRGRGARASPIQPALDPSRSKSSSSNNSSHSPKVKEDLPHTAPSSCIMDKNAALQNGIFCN

| SMILES | EC50 [1] | agonist activity on S1P3 receptor (intracellular calcium) [2] | peripheral blood lymphocyte (PBL) count / peripheral lymphocyte lowering [3] |
| --- | --- | --- | --- |
| N#Cc1cc(-c2nc(-c3ccc4[nH]c5c(c4c3)CCC5CC(=O)O)no2)ccc1OC1CCCC1 (single isomer, unassigned) [Compound 19, 2-(7-(5-(3-Cyano-4-(cyclopentyloxy)phenyl)-1,2,4-oxadiazol-3-yl)-1,2,3,4-tetrahydrocyclopenta[b]indol-3-yl)acetic Acid] | 18.8 nM | – | – |
| N#Cc1cc(OCCF)cc(-c2nc(-c3ccc4[nH]c5c(c4c3)CCC5CC(=O)O)no2)c1 (stereo not shown) [Compound 32, 2-(7-(5-(3-Cyano-5-(2-fluoroethoxy)phenyl)-1,2,4-oxadiazol-3-yl)-1,2,3,4-tetrahydrocyclopenta[b]indol-3-yl)acetic Acid] | 43 nM | – | – |
| CNc1ccc2oc(C[C@H]3O[C@@]4(CC[C@H]3C)O[C@H]([C@H](C)C(=O)c3ccc[nH]3)[C@H](C)C[C@H]4C)nc2c1C(=O)O [Compound A23187, reference compound] | – | pronounced agonist activity | – |
| O=C(O)CC1CCc2c1[nH]c1ccc(-c3noc(-c4cc(C(F)(F)F)cc(C(F)(F)F)c4)n3)cc21 (stereo not shown) [Compound 52, 2-(7-(5-(3,5-Bis(trifluoromethyl)phenyl)-1,2,4-oxadiazol-3-yl)-1,2,3,4-tetrahydrocyclopenta[b]indol-3-yl)acetic Acid] | 75.9 nM | substantially little to no activity; also recorded: no or substantially no agonist activity | exhibited activity for inducing peripheral lymphocyte lowering |
| NC(=O)c1cc(OC(F)(F)F)cc(-c2nc(-c3ccc4[nH]c5c(c4c3)CCC5CC(=O)O)no2)c1 (stereo not shown) [Compound 51, 2-(7-(5-(3-Carbamoyl-5-(trifluoromethoxy)phenyl)-1,2,4-oxadiazol-3-yl)-1,2,3,4-tetrahydrocyclopenta[b]indol-3-yl)acetic Acid] | 230 nM | – | – |
| COc1ccc(-c2nc(-c3ccc4[nH]c5c(c4c3)CCC5CC(=O)O)no2)cc1C(F)(F)F (stereo not shown) [Compound 42, 2-(7-(5-(4-Methoxy-3-(trifluoromethyl)phenyl)-1,2,4-oxadiazol-3-yl)-1,2,3,4-tetrahydrocyclopenta[b]indol-3-yl)acetic Acid] | 94 nM | – | – |
| CCOc1ncc(-c2nc(-c3ccc4[nH]c5c(c4c3)CCC5CC(=O)O)no2)cc1C (stereo not shown) [Compound 62, 2-(7-(5-(6-Ethoxy-5-methylpyridin-3-yl)-1,2,4-oxadiazol-3-yl)-1,2,3,4-tetrahydrocyclopenta[b]indol-3-yl)acetic Acid] | 210 nM | – | – |
| O=C(O)CC1CCc2c1[nH]c1ccc(-c3noc(-c4ccc(OCC(F)(F)F)nc4)n3)cc21 (stereo not shown) [Compound 47, 2-(7-(5-(6-(2,2,2-Trifluoroethoxy)pyridin-3-yl)-1,2,4-oxadiazol-3-yl)-1,2,3,4-tetrahydrocyclopenta[b]indol-3-yl)acetic Acid] | 83 nM | – | – |
